Series [1] is described as follows: Kinetic aqueous solubility of the compound in 4% DMSO/HEPES buffer at pH 8 incubated for 20 hrs by NMR analysis. Format: physicochemical. To be noted: read-out: Kinetic_solubility.
Another series is described as follows: in vitro. To be noted: PAMPA, pH 7.4.

Converted amounts (≈) assume the structure as drawn.

Description for in vitro: Permeability of the compound at pH 7.4 by PAMPA

For `C[C@@H]1CCOc2c(c3cc(Nc4ccnc(Cl)c4C#N)ccc3n(C)c2=O)N1`, the solubility kinetic at 20 h in series [1] came to 190 µM (≈ 75.2 µg/mL). The term Papp denotes the rate of passage across a membrane or cell layer, normalised by area and donor concentration. On to `CCNc1cc(=O)[nH]c2ccc(Nc3ccnc(Cl)c3C#N)cc12`, for which the Papp in “in vitro” is less than 0.1 ×10⁻⁶ cm/s.

The record behind these values is ChEMBL document CHEMBL5131540, “Optimizing Shape Complementarity Enables the Discovery of Potent Tricyclic BCL6 Inhibitors” (J Med Chem, 2022).
